Patent publication US20130079348A1, “COMPOUNDS THAT MODULATE INTRACELLULAR CALCIUM” (CalciMedica, Inc., priority 2010, published 2013)

Tests used:
[1] = tested on: RBL-2H3 cells; experiment: Fluorescence-based assay of store-operated calcium entry in RBL-2H3 cells; format: cell-based; settings: Rattus norvegicus, thapsigargin store depletion, 50% of the Upslope inhibited
Experimental: B. Fluorescence-based Assay of Store-Operated Calcium Entry in RBL-2H3 Cells.
RBL-2H3 cells were obtained from ATCC and maintained in complete medium with 10% FBS at 37° C./6% CO2.
The day prior to performing the assay, RBL-2H3 cells are plated in 50 μL of complete medium in a 384 well plate. Cells are grown at 37° C./6% CO2 overnight and grow to 50-60% confluence by the next day. On the assay day, 1.5 μM Fluo-4-AM dye (Invitrogen) in complete medium is added and incubated for 1 hour at RT. Cells are washed twice in Ca^2+-free HBSS buffer and 35 μL Ca^2+-free HBSS buffer is added to each well. 10 μL of a test compound prepared in a Ca^2+-free HBSS solution at 4.5× of the desired concentration is added to a well and incubated for 5 minutes at RT. 10 μL of thapsigargin prepared in a Ca^2+-free HBSS solution at 5.5× of the desired concentration (5.5 uM) is added to each well and incubated for an additional 25 minutes. The initial baseline fluorescence signal is measured with a FLIPR^384 (Molecular Devices) plate reader. 5 μL of 12× calcium in HBSS (12 mM) is added and changes in cellular fluorescence are measured with the FLIPR^384 plate reader. In each well, the change in the fluorescent signal as a function of time due to calcium entry into the cell is determined by calculating the difference between the fluorescent signal measured 7 seconds after calcium addition and the initial baseline fluorescence signal at time zero (t=0). This parameter is designated Upslope. The IC50 value is calculated as the concentration at which 50% of the Upslope is inhibited.

[2] = molecular target: T1, recombinant human STIM1 and Orai1 (HEK-293 cells) (Homo sapiens, UniProt Q96D31); experiment: Fluorescence-based assay of store-operated calcium entry in Orai1/STIM1 stable cells; format: cell-based; settings: concentration that inhibited 50% of the Peak-Basal fluorescence signal; 30 min compound incubation; read-out: IC50(μM) JR251
T1 construct: c-myc (C); expressed in transfected cells; host or cells: HEK-293
Experimental: A. Fluorescence-based Assay of Store-Operated Calcium Entry in Orai1/STIM1 Stable Cells.
Cells stably expressing recombinant human STIM1 and Orai1 were generated by transfecting a human Orai1 expression plasmid (pcDNA3.1-Orai1-cmyc) into HEK-293 cells stably overexpressing human STIM1 (Roos et al. 2005 JCB 169(3): 435-445). Colonies of cells stably expressing both STIM1 and Orai1 proteins were selected and then subcloned by limiting dilution. Cells were cultured at 37° C./6% CO2 in complete medium with 10% FBS and appropriate selection markers.
The day prior to performing the assay Orai1/STIM1 stable cells were plated in 50 μL of complete medium at 90-95% confluence in a 384 well plate. Cells were grown at 37° C./6% CO2 overnight. On the day of the assay, 1.5 μM fluo-4-AM (Invitrogen) in complete medium was added to the cells, which were then incubated for 1 hour at RT. Cells were washed once in Ca^2+-free HBSS (Hank's buffered saline solution) and 35 μl of Ca^2+-free HBSS was added to each well. Test compounds were added to wells in a 10 μL Ca^2+-free HBSS solution, prepared at 4.5× the desired final concentration, and incubated for 30 minutes at RT. The initial baseline fluorescence signal was then measured with a FLIPR^384 (Molecular Devices) plate reader. Calcium entry was initiated by adding 5 μl of 10× CaCl2 (10 mM) in HBSS, and changes in cellular fluorescence were measured with the FLIPR^384 plate reader. In each well, the magnitude of the fluorescence signal as a result of calcium entry into the cell was determined by calculating the difference between the peak fluorescence signal measured after calcium addition and the initial baseline fluorescence signal (designated Peak-Basal). IC50 values were typically calculated as the concentration that inhibited 50% of the Peak-Basal signal (Table A).

[3] = molecular target: STIM1 and Orai1 in HEK293 cells (Homo sapiens, UniProt Q96D31); settings: HEK293 cells expressing STIM1 and Orai1; cited from earlier work
[4] = tested on: Jurkat cells; settings: cited from earlier work

T1 sequence (Q96D31 whole entry): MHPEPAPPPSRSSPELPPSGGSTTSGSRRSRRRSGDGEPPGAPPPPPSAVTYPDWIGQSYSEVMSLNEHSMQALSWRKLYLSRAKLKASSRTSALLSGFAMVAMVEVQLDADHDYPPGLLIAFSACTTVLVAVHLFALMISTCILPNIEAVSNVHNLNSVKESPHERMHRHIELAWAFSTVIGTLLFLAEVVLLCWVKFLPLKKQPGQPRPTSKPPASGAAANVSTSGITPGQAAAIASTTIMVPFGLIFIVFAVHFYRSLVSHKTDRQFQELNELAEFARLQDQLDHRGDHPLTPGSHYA
Sequence of STIM1 and Orai1 in HEK293 cells (Q96D31 whole entry): as above

Row | IC50 [1] [µM] | IC50 [2] [µM] | Structure (SMILES) | further results
1 | ≤ 0.5 | 0.5 to 1 | Cc1ccc(-c2csc(NC(=O)c3sc4ccccc4[n+]3[O-])c2C(=O)O)c(F)c1F [Compound 23] | 
2 | ≤ 0.5 | ≤ 0.5 | Cc1ccc(-c2csc(NC(=O)c3c(O)ccc(F)c3F)c2C(=O)O)c(F)c1F [Compound 26] | 
3 | 0.5 to 1 | 1 to 10 | CC(=O)Nc1cccc2nc(C(=O)Nc3scc(-c4ccc(Cl)cc4)c3C(=O)O)sc12 [Compound 24] | 
4 | ≤ 0.5 | 0.5 to 1 | Cc1ccc(-c2csc(NC(=O)c3nc4cccc(Cl)c4s3)c2C(=O)O)c(F)c1F [Compound 22] | 
5 | ≤ 0.5 | ≤ 0.5 | Nc1cccc2nc(C(=O)Nc3scc(-c4ccc(Cl)cc4)c3C(=O)O)sc12 [Compound 17] | 
6 | ≤ 0.5 | ≤ 0.5 | O=C(O)c1c(-c2ccc(Cl)cc2)csc1NC(=O)N1Cc2cccc(F)c2C1 [Compound 28] | 
7 | ≤ 0.5 |  | Cc1ccc(-c2csc(NC(=O)c3nc4ccc(Br)cc4s3)c2C(=O)O)c(F)c1F [Compound 16] | 
8 | ≤ 0.5 | ≤ 0.5 | Cc1ccc(-c2csc(NC(=O)c3cc(F)cc(F)c3O)c2C(=O)O)c(F)c1F [Compound 27] | 
9 | 0.5 to 1 | ≤ 0.5 | COc1cccc2sc(C(=O)Nc3scc(-c4ccc(Cl)cc4)c3C(=O)O)nc12 [Compound 20] | 
10 | 1 to 10 | 0.5 to 1 | Cc1ccc(-c2csc(NC(=O)c3nc4cccc(O)c4s3)c2C(=O)O)c(F)c1F [Compound 25] | 
11 | ≤ 0.5 | 0.5 to 1 | COc1ccc2sc(C(=O)Nc3scc(-c4ccc(Cl)cc4)c3C(=O)O)nc2c1 [Compound 19] | 
12 | ≤ 0.5 | 0.5 to 1 | Cc1ccc(-c2csc(NC(=O)c3nc4cccc(N)c4s3)c2C(=O)O)c(F)c1F [Compound 18] | 
13 | ≤ 0.5 | 0.5 to 1 | O=C(Nc1scc(-c2ccc(Cl)cc2)c1C(=O)O)c1nc2cccc(Cl)c2s1 [Compound 21] | 
14 | ≤ 0.5 | ≤ 0.5 | Cc1ccc(-c2csc(NC(=O)c3ccc(F)c(F)c3O)c2C(=O)O)c(F)c1F [Compound 29] | 

Continued, compound first:

Row | Structure (SMILES) | IC50 [1] [µM] | IC50 [2] [µM] | further results
15 | Cc1ccc(-c2csc(NC(=O)c3cc4cccc(C)n4n3)c2C(=O)O)c(F)c1F [Compound 3] | ≤ 0.5 |  | 
16 | NCCOB(c1ccccc1)c1ccccc1 [2-aminoethoxydiphenylborate] |  |  | block of store-operated Ca2+ entry [3]: completely blocked
17 | Cc1ccc(-c2csc(NC(=O)c3cc4c(F)cc(F)cn4n3)c2C(=O)O)c(F)c1F [Compound 6] | 0.5 to 1 |  | 
18 | COc1cccc2cc(C(=O)Nc3scc(-c4ccc(Cl)cc4)c3C(=O)O)nn12 [Compound 9] | 1 to 10 | 0.5 to 1 | 
19 | Cc1ccc(-c2csc(NC(=O)c3nc4c(F)cccc4s3)c2C(=O)O)c(F)c1 [Compound 14] | 0.5 to 1 | 0.5 to 1 | 
20 | Cc1ccc(-c2scc(NC(=O)c3cc4c(F)cccn4n3)c2C(=O)O)c(F)c1 [Compound 1] | ≤ 0.5 | ≤ 0.5 | 
21 | Cc1ccc(-c2csc(NC(=O)c3nn4ccccc4c3N)c2C(=O)O)c(F)c1F [Compound 4] | 1 to 10 |  | 
22 | COc1cccn2nc(C(=O)Nc3scc(-c4ccc(C)c(F)c4F)c3C(=O)O)cc12 [Compound 10] | 0.5 to 1 |  | 
23 | O=C(Nc1scc(-c2ccc(Cl)cc2)c1C(=O)O)c1cc2c(F)cc(F)cn2n1 [Compound 5] | 0.5 to 1 | 1 to 10 | 
24 | Cc1ccc(-c2csc(NC(=O)c3nc4ccc(F)cc4s3)c2C(=O)O)c(F)c1 [Compound 12] | ≤ 0.5 | 0.5 to 1 | 
25 | Cc1nnsc1C(=O)Nc1ccc(-n2nc(C(F)(F)F)cc2C(F)(F)F)cc1 [BTP-2] |  |  | inhibition of proliferation ([4]; Jurkat cells and colon cancer cells): inhibits; inhibition of SOCE ([4]; Jurkat cells): inhibits
26 | Cc1ccc(-c2csc(NC(=O)c3cc4cccc(C)n4n3)c2C(=O)O)c(F)c1 [Compound 2] | ≤ 0.5 | ≤ 0.5 | 
27 | O=C(Nc1scc(-c2ccc(Cl)cc2F)c1C(=O)O)c1nc2c(F)cccc2s1 [Compound 13] | ≤ 0.5 | 0.5 to 1 | 
28 | COc1cccn2nc(C(=O)Nc3scc(-c4ccc(Cl)cc4)c3C(=O)O)cc12 [Compound 7] | 0.5 to 1 |  | 
29 | Cc1ccc(-c2csc(NC(=O)c3nc4ccc(F)cc4s3)c2C(=O)O)c(F)c1F [Compound 11] | ≤ 0.5 | ≤ 0.5 | 
30 | Cc1ccc(-c2csc(NC(=O)c3nc4cc(C(F)(F)F)ccc4s3)c2C(=O)O)c(F)c1F [Compound 15] | 0.5 to 1 |  | 
31 | Cc1ccc(-c2csc(NC(=O)c3cc4ccc(F)cn4n3)c2C(=O)O)c(F)c1F [Compound 8] | 0.5 to 1 |  | 
